# Measurements: patent US20220380319A1 (Bial - R&D Investments, S.A., priority 2019, published 2022)
# Columns and labels:
# [1] = molecular target: T1, acid ceramidase (Homo sapiens, UniProt Q13510); assay: Acid ceramidase inhibition, biochemical fluorescent assay with cell lysates overexpressing acid ceramidase, substrate Rbm14-12; settings: substrate Rbm14-12 6.3 μM, pH 4.5
# T1 construct: Cell lysates overexpressing acid ceramidase were used as the enzyme source; expressed in transfected cells
# T1 sequence (Q13510 22-395): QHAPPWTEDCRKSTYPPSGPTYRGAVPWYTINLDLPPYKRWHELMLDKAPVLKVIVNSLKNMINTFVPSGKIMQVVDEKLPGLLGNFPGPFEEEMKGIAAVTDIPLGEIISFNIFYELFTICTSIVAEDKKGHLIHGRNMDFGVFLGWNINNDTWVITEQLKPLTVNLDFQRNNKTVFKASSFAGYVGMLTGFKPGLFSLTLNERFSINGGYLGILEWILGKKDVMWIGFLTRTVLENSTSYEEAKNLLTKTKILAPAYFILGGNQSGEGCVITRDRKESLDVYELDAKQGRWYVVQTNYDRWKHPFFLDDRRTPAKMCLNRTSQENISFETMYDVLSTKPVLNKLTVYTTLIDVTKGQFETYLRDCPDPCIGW
# Method in brief: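 Lysate of cells overexpressing acid ceramidase (10 μg protein) preincubated with compound dose series 1 hr at RT in 25 mM NaAC, 100 mM NaCl, pH 4.5, then reacted 1 hr with 6.3 μM Rbm14-12. Stopped with NaIO4/glycine buffer pH 10.6, fluorescence ex360/em446; IC50 by four-parameter fit.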
# [2] = Compound solubility in water
Compound,IC50 [1],solubility [2]
"N#CCCN1CCN(c2cccc3c2ncn3C(=O)NCCC2CCC(F)(F)C2)CC1 (stereo not drawn) [Example 288, 4-(4-(2-Cyanoethyl)piperazin-1-yl)-N-(2-(3,3-difluorocyclopentyl)ethyl)-1H-benzo[d]imidazole-1-carboxamide]",200 to 1000 nM,26 µg/mL
"CN1C2CCC1CN(c1cccc3c1ncn3C(=O)NCCC1CCC(F)(F)C1)C2 (stereo not drawn) [Example 289, N-(2-(3,3-Difluorocyclopentyl)ethyl)-4-(8-methyl-3,8-diazabicyclo[3.2.1]octan-3-yl)-1H-benzo[d]imidazole-1-carboxamide]",200 to 1000 nM,39 µg/mL
"O=C(NCCC1CCC(F)(F)C1)n1cnc2c(N3CCN4CCCC4C3)cccc21 (stereo not drawn) [Example 290, N-(2-(3,3-Difluorocyclopentyl)ethyl)-4-(hexahydropyrrolo[1,2-a]pyrazin-2(1H)-yl)-1H-benzo[d]imidazole-1-carboxamide]",200 to 1000 nM,28 µg/mL
"CCN1CCN(c2cccc3c2ncn3C(=O)NCCC2CCC(F)(F)C2)CC1 (stereo not drawn) [Example 291, N-(2-(3,3-Difluorocyclopentyl)ethyl)-4-(4-ethylpiperazin-1-yl)-1H-benzo[d]imidazole-1-carboxamide]",200 to 1000 nM,20 µg/mL
"CN1CC2CCC1CN2c1cccc2c1ncn2C(=O)NCCC1CCC(F)(F)C1 (stereo not drawn) [Example 292, N-(2-(3,3-Difluorocyclopentyl)ethyl)-4-(5-methyl-2,5-diazabicyclo[2.2.2]octan-2-yl)-1H-benzo[d]imidazole-1-carboxamide]",200 to 1000 nM,36 µg/mL
"CN1CC2CC1CN2c1cccc2c1ncn2C(=O)NCCC1CCC(F)(F)C1 (stereo not drawn) [Example 293, N-(2-(3,3-difluorocyclopentyl)ethyl)-4-(5-methyl-2,5-diazabicyclo[2.2.1]heptan-2-yl)-1H-benzo[d]imidazole-1-carboxamide]",200 to 1000 nM,39 µg/mL
"CN1CC2CC1CN2c1cccc2c1ncn2C(=O)NCCOc1ccccc1 (stereo not drawn) [Example 295, 4-(5-Methyl-2,5-diazabicyclo[2.2.1]heptan-2-yl)-N-(2-phenoxyethyl)-1H-benzo[d]imidazole-1-carboxamide]",< 200 nM,33 µg/mL
"CN1CC(N2CCN(c3cccc4c3ncn4C(=O)NCCOc3ccccc3)CC2)C1 [Example 296, 4-(4-(1-Methylazetidin-3-yl)piperazin-1-yl)-N-(2-phenoxyethyl)-1H-benzo[d]imidazole-1-carboxamide]",< 200 nM,36 µg/mL
"CC(C)C#CCNC(=O)n1cnc2c(N3CC(N4CCN(C)CC4)C3)cccc21 [Example 298, N-(4-Methylpent-2-ynyl)-4-(3-(4-methyl-piperazin-1-yl)azetidin-1-yl)-1H-benzo[d]imidazole-1-carboxamide]",< 200 nM,27 µg/mL
"CC(C)C#CCNC(=O)n1cnc2c(N3CCN(C4CN(C)C4)CC3)cccc21 [Example 299, 4-(4-(1-Methylazetidin-3-yl)piperazin-1-yl)-N-(4-methylpent-2-yn-1-yl)-1H-benzo[d]imidazole-1-carboxamide]",< 200 nM,30 µg/mL
"CNC1CCN(c2cccc3c2ncn3C(=O)NCC#CC(C)C)C1 (stereo not drawn) [Example 300, 4-(3-(Methylamino)pyrrolidin-1-yl)-N-(4-methylpent-2-ynyl)-1H-benzo[d]imidazole-1-carboxamide]",< 200 nM,29 µg/mL
"CC(C)C#CCNC(=O)n1cnc2c(N3CC4CC3CN4C)cccc21 (stereo not drawn) [Example 301, 4-(5-Methyl-2,5-diazabicyclo[2.2.1]heptan-2-yl)-N-(4-methylpent-2-ynyl)-1H-benzo[d]imidazole-1-carboxamide]",200 to 1000 nM,34 µg/mL
"CC(C)C#CCNC(=O)n1cnc2c(N3CCN4CCCC4C3)cccc21 (stereo not drawn) [Example 302, 4-(Hexahydropyrrolo[1,2-a]pyrazin-2(1H)-yl)-N-(4-methylpent-2-yn-1-yl)-1H-benzo[d]imidazole-1-carboxamide]",< 200 nM,22 µg/mL
"CC(C)C#CCCNC(=O)n1cnc2c(N3CCN(C)CC3)cccc21 [Example 303, N-(5-Methylhex-3-yn-1-yl)-4-(4-methylpiperazin-1-yl)-1H-benzo[d]imidazole-1-carboxamide]",200 to 1000 nM,28 µg/mL
"CC(C)C#CCNC(=O)n1cnc2c(N3CC4CCC3CN4C)cccc21 (stereo not drawn) [Example 304, 4-(5-Methyl-2,5-diazabicyclo[2.2.2]octan-2-yl)-N-(4-methylpent-2-ynyl)-1H-benzo[d]imidazole-1-carboxamide]",200 to 1000 nM,27 µg/mL
"CCC#CCNC(=O)n1cnc2c(N3CCN(C)CC3)cccc21 [Example 305, 4-(4-Methylpiperazin-1-yl)-N-(pent-2-yn-1-yl)-1H-benzo[d]imidazole-1-carboxamide]",200 to 1000 nM,27 µg/mL
"CC(C)C#CCNC(=O)n1cnc2c(N3CCN(C)C(CC#N)C3)cccc21 (stereo not drawn) [Example 306, 4-(3-(Cyanomethyl)-4-methylpiperazin-1-yl)-N-(4-methylpent-2-ynyl)-1H-benzo[d]imidazole-1-carboxamide]",< 200 nM,23 µg/mL
"CC(C)C#CCNC(=O)n1cnc2c(N3CCN(C4COC4)CC3)cccc21 [Example 307, N-(4-Methylpent-2-yn-1-yl)-4-(4-(oxetan-3-yl)-piperazin-1-yl)-1H-benzo[d]imidazole-1-carboxamide]",< 200 nM,20 µg/mL
"CC(C)C#CCNC(=O)n1cnc2c(N3CCN(CCF)CC3)cccc21 [Example 309, 4-(4-(2-Fluoroethyl)piperazin-1-yl)-N-(4-methylpent-2-yn-1-yl)-1H-benzo[d]imidazole-1-carboxamide]",< 200 nM,22 µg/mL
"CC(C)C#CCNC(=O)n1cnc2c(N3CCN(CCC(F)(F)F)CC3)cccc21 [Example 310, N-(4-Methylpent-2-yn-1-yl)-4-(4-(3,3,3-trifluoropropyl)piperazin-1-yl)-1H-benzo[d]imidazole-1-carboxamide]",< 200 nM,4 µg/mL
"CC(C)C#CCNC(=O)n1cnc2c(N3CCC4(CCCN4C)CC3)cccc21 [Example 311, 4-(1-Methyl-1,8-diazaspiro[4.5]decan-8-yl)-N-(4-methylpent-2-yn-1-yl)-1H-benzo[d]imidazole-1-carboxamide]",< 200 nM,31 µg/mL
"CC(C)C#CCNC(=O)n1cnc2c(N3CCC4CN(C)CC4CC3)cccc21 (stereo not drawn) [Example 312, 4-(2-Methyloctahydropyrrolo[3,4-d]azepin-6(1H)-yl)-N-(4-methylpent-2-yn-1-yl)-1H-benzo[d]imidazole-1-carboxamide]",< 200 nM,24 µg/mL
"CC(C)C#CCNC(=O)n1cnc2c(N3CCC4(CC3)CCN4C)cccc21 [Example 313, 4-(1-Methyl-1,7-diazaspiro[3.5]nonan-7-yl)-N-(4-methylpent-2-yn-1-yl)-1H-benzo[d]imidazole-1-carboxamide]",< 200 nM,29 µg/mL
"CN1CCN(C2CN(c3cccc4c3ncn4C(=O)NCCOc3ccccc3)C2)CC1 [Example 314, 4-(3-(4-Methylpiperazin-1-yl)azetidin-1-yl)-N-(2-phenoxyethyl)-1H-benzo[d]imidazole-1-carboxamide]",< 200 nM,35 µg/mL
